Measurements as given in patent publication US8618082B2, “Lupeol anti-tumor agent and uses thereof” (Wisconsin Alumni Research Foundation, priority 2004, dated 2013).
“Also recorded” adds a separate entry of the source. Marks after values point to notes of the source that are not given here.

What was measured:
[1] = test system: PARP, acinus, Bcl2, Bax, Caspase 7 in LNCaP cells; assay: PARP cleavage and apoptosis protein expression in LNCaP cells (western blot); type: cell-based, human
Description: FIG. 12 depicts effect of Lupeol treatment on PARP cleavage and on protein expression of acinus, in LNCaP cells. Cells were treated with specified concentrations of Lupeol for 48 h, harvested and total cell lysates were prepared. PARP cleavage and the expression of acinus, were determined by western blot analysis. Equal loading was confirmed by stripping immunoblots and reprobing them for β-actin. The immunoblots shown here are representative of three independent experiments with similar results.

AsPC-1 cells = assay: Apoptosis in AsPC-1 cells by fluorescence microscopy and flow cytometry; type: cell-based; details: flow cytometry and confocal microscopy
Source text: FIG. 21 depicts Lupeol induced apoptosis in AsPC-1 cells as assessed by fluorescence microscopy (Upper Panel) and by flow cytometry (Bottom Panel). Upper panel of FIG. 21 contains the representative micrographs of AsPC-1 cells undergoing apoptosis induced by treatment with Lupeol as assessed by fluorescence microscopy (Upper panel).

Fas receptor protein = assay: Fas receptor expression in LNCaP cells treated with Lupeol plus anti-Fas mAb (western blot); type: cell-based, human; details: anti-Fas mAb pretreated LNCaP cells treated with Lupeol
Description: FIG. 16 depicts cells that were treated with vehicle (DMSO+alcohol) only or specified concentrations of Lupeol alone, anti-Fas mAb or with combination (Lupeol+anti-Fas mAb) for 48 h, harvested and total cell lysates were prepared. The expression of Fas receptor protein in total cell lysate was determined by western blot analysis. Equal loading was confirmed by stripping immunoblots and reprobing them for β-actin. The immunoblots shown here are representative of three independent experiments with similar results.

[2] = test system: androgen-sensitive prostatic cancer cells (LNCaP); assay: Viability of LNCaP cells, MTT assay; type: cell-based, human; details: for cell death of LNCaP cells: 48 hours
Description: FIG. 10 depicts effect of Lupeol on viability of androgen-sensitive prostatic cancer cells (LNCaP). Cells were treated with specified concentrations of Lupeol for 48 h, and cell viability was determined by MTT assay. The values are represented as the percent viable cells where vehicle-treated cells were regarded as 100% viable. Data represents mean value of percent viable cells±S.E of three independent experiments.

CD-1 mouse skin = assay: TPA-induced cutaneous edema, skin punch weight; type: in vivo; details: for protection against TPA-induced skin edema: dose not stated, p<0.01
Description: (§1) Studies from the inventors' laboratory and by other have shown that TPA application to mouse skin results in cutaneous edema (Katiyar et at, 1996; Liang et at, 2002). In the present study, the inventors evaluated the protective effects of topical application of Lupeol in TPA-mediated cutaneous edema in CD-1 mouse. The inventors tested four doses 0.25, 0.5, 1 and 2 mg of Lupeol per animal in the inventors' preliminary studies. […] The CD-1 mice were topically treated with Lupeol (1 and 2 mg/mouse) and 30 min later were topically treated with TPA (3.2 nmole/mouse). […] At least four determinations were made at different dorsal skin sites per mouse in each group. The data represents the mean±SE of eight mice (*p<0.01 vs TPA).
The animals were shaved on the dorsal side of the skin, divided into four groups and treated topically on the shaved area with either 0.4 ml vehicle (acetone), or TPA (3.2 nmol/0.4 ml acetone/animal, v/v), or Lupeol (1 or 2 mg/0.2 ml acetone/animal, w/v) followed 30 min later with TPA (3.2 nmol/0.2 ml acetone/animal). Animals were sacrificed at different times point i.e. 6, 12, 24 and 48 h post TPA treatment. The epidermis was separated from the whole skin and homogenized in 0.1 M Tris-HCl buffer (pH 7.2) using a Polytron tissue homogenizer (Brinkmann Instruments, Westbury, N.Y., USA) at 100,000×g supernatant, and microsomal fractions were prepared as described earlier (Katiyar and Mukhtar, 1997). The sample of 6 h treatment group was used to assess the ODC activity as this time point has previously been shown for optimal induction of the enzyme (Katiyar er al., 1996).
To assess the inhibitory effect of pre-application of Lupeol on TPA-induced edema, 1 cm-diameter punches of skin from vehicle-, Lupeol-, TPA- or Lupeol- and TPA-treated mice were removed, made free of fat pads, and weighed immediately. After drying for 24 h at 50° C., the skin punches were reweighed, and the loss of water content was determined. The difference in the amount of water gain between the control (vehicle treated) and TPA treated represented the extent of edema induced by TPA, whereas that between the control vehicle and Lupeol plus TPA represented the inhibitory effect of Lupeol. For the hyperplasia study, skin was removed, fixed in 10% formalin, and embedded in paraffin. Vertical sections (5 μm) were cut, mounted on a glass slide, and stained with hematoxylin and eosin.

CD-1 mouse = assay: Preliminary dose study, primary biomarkers of tumor promotion; type: in vivo; details: 0.25 and 0.5 mg of Lupeol per animal, topical; data not shown
Description: as §1

CWR22Rv1 cells = assay: CWR22Rv1 xenograft tumor growth in athymic nude mice; type: in vivo, mouse; details: Lupeol 1 mg/animal i.p. three times a week, vs control mice
Description: FIG. 18 depicts effect of lupeol treatment on the growth of tumors from CWR22Rv1 cells implanted in nude mice. The growth was measured in terms of average volume of tumors as a function of time. Data is represented as mean±SD. * indicates p<0.05 (B) Number of mice remaining with tumor volumes<1000 mm^3 after treatment with corn oil alone or Lupeol for indicated weeks. * indicates p<0.01
To determine, whether lupeol could reduce the tumorigenicity of prostate cancer cells in animal model, androgen-dependent prostate cancer cells CW22Rv1, were implanted in a Athymic nude mouse xenograft model. Mice were given i.p. injection of Lupeol (1 mg/animal) three times a week. Tumor growth was measured weekly in terms of volume of tumors as function of time.

[3] = Lupeol alone (2 mg), topical, no TPA, mean±SE of eight mice
[4] = TPA + Lupeol (1 mg), Lupeol topical 30 min before TPA
[5] = TPA + Lupeol (2 mg), Lupeol topical 30 min before TPA

With `C=C(C)[C@@H]1CC[C@]2(C)CC[C@]3(C)[C@H](CC[C@@H]4[C@@]5(C)CC[C@H](O)C(C)(C)[C@@H]5CC[C@]43C)[C@@H]12` [Lupeol, Lup-20(29)-en-3β-ol] the “Bcl2, Bax and Caspase 7 protein expression” value [1] was “no change”, the “cleavage of PARP and Acinus protein” value ([1]; 48 hours) was “induce the cleavage of PARP protein and degradation of Acinus protein; also recorded: induced cleavage of PARP and Acinus protein” and the “induction of apoptosis in ASPC-1 cells” value (AsPC-1 cells) was “inducing apoptosis”. For the same compound, the Fas protein expression (Fas receptor protein) was “highly increased”, the “cell death of LNCaP cells” value ([2]; 40-60 μM Lupeol) was 75-90% and the “cell viability of LNCaP cells” value ([2]; Lupeol 5-30 μM, 48 and 72 h, time and dose dependent) was “significant inhibition of cell viability”. The “cell death of LNCaP cells” value ([2]; Lupeol up to 30 μM) was 70%, the “protection against TPA-induced skin edema” value (CD-1 mouse skin; 24 h post-treatment) was 48% and the “protection against TPA-induced skin edema” value (CD-1 mouse skin; 48 h post-treatment) was 43%. The “Skin punch weight 24 hrs” value (CD-1 mouse skin; [3]) was 13.5 ± 1.5 mg/cm2, the “Skin punch weight 48 hrs” value (CD-1 mouse skin; [3]) was 15.5 ± 1.5 mg/cm2 and the “% protection 24 hrs” value (CD-1 mouse skin; TPA + Lupeol (1 mg)) was 53%. For the same compound, the “% protection 48 hrs” value (CD-1 mouse skin; TPA + Lupeol (1 mg)) was 52%, the “Skin punch weight 24 hrs” value (CD-1 mouse skin; [4]) was 18.5 ± 1.0* mg/cm2 and the “Skin punch weight 48 hrs” value (CD-1 mouse skin; [4]) was 20.0 ± 1.0* mg/cm2. For the same compound, the “% protection 24 hrs” value (CD-1 mouse skin; TPA + Lupeol (2 mg)) was 79%, the “% protection 48 hrs” value (CD-1 mouse skin; TPA + Lupeol (2 mg)) was 85% and the “Skin punch weight 24 hrs” value (CD-1 mouse skin; [5]) was 16.0 ± 1.5* mg/cm2. The “Skin punch weight 48 hrs” value (CD-1 mouse skin; [5]) was 16.5 ± 0.75* mg/cm2, the “skin edema after Lupeol alone” value (CD-1 mouse skin; topical Lupeol alone, 24 and 48 h post treatment) was “did not result in an increase in skin edema” and the “effect on primary biomarkers of tumor promotion” value (CD-1 mouse) was “did not exhibit any significant effect”. The “tumor growth (tumor volume as function of time)” value (CWR22Rv1 cells) was “significant reduction in tumor growth; also recorded: significantly Lower than control mice”.
